Among the data in US20240287022A1 (Merck Sharp & Dohme LLC, priority 2021, published 2024) are EC50 values, retold here.

recombinant IL4I1, sequence (Q96RQ9 22-567): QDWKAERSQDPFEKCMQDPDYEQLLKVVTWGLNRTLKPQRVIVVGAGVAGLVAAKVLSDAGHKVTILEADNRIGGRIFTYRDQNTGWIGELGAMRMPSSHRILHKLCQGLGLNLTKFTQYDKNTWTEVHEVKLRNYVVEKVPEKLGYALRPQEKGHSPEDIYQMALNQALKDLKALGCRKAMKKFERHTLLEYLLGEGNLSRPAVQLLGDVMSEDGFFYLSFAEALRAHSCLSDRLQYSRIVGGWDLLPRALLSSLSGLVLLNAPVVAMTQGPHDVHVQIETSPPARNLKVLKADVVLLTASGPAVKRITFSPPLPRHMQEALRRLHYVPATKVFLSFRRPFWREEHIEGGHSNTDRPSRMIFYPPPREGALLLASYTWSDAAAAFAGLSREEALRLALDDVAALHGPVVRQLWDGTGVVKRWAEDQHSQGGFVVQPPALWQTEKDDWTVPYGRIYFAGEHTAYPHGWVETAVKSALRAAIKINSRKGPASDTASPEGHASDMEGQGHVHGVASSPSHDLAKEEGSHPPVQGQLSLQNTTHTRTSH

The experiment concerns the target recombinant IL4I1 (Homo sapiens (Human), UniProt Q96RQ9). Briefly: IL4I1 Enzymatic Assay (Amplex Red/HRP coupled H2O2 detection). Particulars: 1 nM IL4I1, 1 mM each Phe/Tyr/Trp, four-hour pre-incubation, 120 minutes reaction, top compound concentration of 10000 nM. Type of experiment: biochemical. As to the method: Interleukin 4 inducible protein 1 (IL4I1) is an L-amino oxidase that catalyzes the oxidation of aromatic residues (Phe, Trp and Tyr): L-amino acid+H2O+O2→2-oxo acid+NH3+H2O2. Equal molar of H2O2 and the corresponding alpha-ketoacid are produced when IL4I1 and substrate are added. In this assay, the hydrogen peroxide generated by IL4I1 are then detected through a coupled reaction with Amplex Red (10-acetyl-3,7-dihydroxyphenoxazine) and […] (HRP) to produce Resorufin product that could be detected in the form of fluorescence signals. The assessment of the inhibitory effect of small molecules (EC50) on IL4I1 is measured by the effectiveness of the compounds to inhibit the production of H2O2.
Using this assay, the potency (EC50) of each compound was determined from a ten-point (1:3 serial dilution; top compound concentration of 10000 nM) titration curve using the following outlined procedure. To each well of a black flat-bottom Greiner (Cat #781076) 384 well-plate, 25 nL of compound (0.1% DMSO in final assay volume of 25 μL) was dispensed, followed by the addition of 12.5 μL of 1× assay buffer (50 mM Hepes 7.0 and 0.005% Tween20 (Sigma, Cat #P8341; low peroxide grade)) containing 2 nM of recombinant IL4I1 (R&D Systems, Cat #5684-AO-020). Plates were placed in an ambient temperature humidified chamber for a four-hour pre-incubation with compound. Subsequently, each reaction was initiated by the addition of 12.5 μL 1× assay buffer containing 2 mM of each aromatic amino acids (Phe/Tyr/Trp), 0.1 mM Amplex Red and 2 U/mL of HRP. The final reaction in each well of 25 μL consists of 1 nM of IL4I1, 1 mM of each residues (Phe, Tyr and Trp), 0.05 mM Amplex Red and 1 U/mL of HRP. It should be noted that the concentrations of Amplex Red and HRP used here are in excess such that the conversion of H2O2 to Resorufin product occurs instantaneously and non-rate limiting. Reactions were allowed to proceed for 120 minutes followed by fluorescence readout on a Spectramax with the following set parameters: 544 nm excitation/590 nm emission, 570 nm cutoff (EnVision is an alternative reader). Dose-response curves were generated by plotting percent effect (% product conversion; Y-axis) vs. Log10 compound concentrations (X-axis). EC50 values were calculated using a non-linear regression, four-parameters sigmoidal dose-response model.
On to `C[C@@](O)(c1ccc(Cc2cc3ccccc3[nH]c2=O)cc1)C(F)F` (stereo in doubt) [Example 90A, 3-(4-(1,1-difluoro-2-hydroxypropan-2-yl)benzyl)quinolin-2(1H)-one], for which the EC50 was 9.6 nM. With `O=C1CCc2cc(Cc3cc4ccccc4[nH]c3=O)ccc2N1` [Example 154, 3-((2-oxo-1,2,3,4-tetrahydroquinolin-6-yl)methyl)quinolin-2(1H)-one] the figure was 5.4 nM; with `O=c1[nH]c2ccccc2cc1Cc1ccc(OC2CCOCC2)nc1` [Example 85, 3-((6-((tetrahydro-2H-pyran-4-yl)oxy)pyridin-3-yl)methyl)quinolin-2(1H)-one], 8.7 nM; with `CC(C)(O)c1ccc(Cc2cc3cnccc3[nH]c2=O)cc1Cl` [Example 184, 3-(3-Chloro-4-(2-hydroxypropan-2-yl)benzyl)-1,6-naphthyridin-2(1H)-one], 15.3 nM. Take `O=C1CC[C@@H](c2ccc(Cc3cc4ccccc4[nH]c3=O)cc2)N1` [Example 159, (S)-3-(4-(5-oxopyrrolidin-2-yl)benzyl)quinolin-2(1H)-one]: the EC50 is 4.1 nM.

Turning to `CC(=O)NCc1ccc(Cc2cc3ccccc3[nH]c2=O)cc1F` [Example 166, N-(2-fluoro-4-((2-oxo-1,2-dihydroquinolin-3-yl)methyl)benzyl)acetamide], the EC50 is 2.7 nM.

As to `N#CC1(c2ccc(Cc3cc4ccccc4[nH]c3=O)cc2)COC1` [Example 147, 3-(4-((2-oxo-1,2-dihydroquinolin-3-yl)methyl)phenyl)oxetane-3-carbonitrile], the EC50 came to 2.3 nM. As to `CC(c1nnc(Cc2cc3ccccc3[nH]c2=O)o1)C1CC1` (racemic) [Example 19, rac-3-((5-(1-cyclopropylethyl)-1,3,4-oxadiazol-2-yl)methyl)quinolin-2(1H)-one], the EC50 turned out to be 125 nM. Turning to `O=c1[nH]c2ccccc2cc1Cc1ccc(C2COCC2O)cc1` (centres unmarked) [Example 182, 3-(4-(4-hydroxytetrahydrofuran-3-yl)benzyl)quinolin-2(1H)-one], the half-maximal effective concentration (EC50) turned out to be 7.3 nM.

Regarding `O=c1[nH]c2ccccc2cc1Cc1nnc(-c2scnc2Cl)o1` [Example 38, 3-((5-(4-chlorothiazol-5-yl)-1,3,4-oxadiazol-2-yl)methyl)quinolin-2(1H)-one], the EC50 is 25.2 nM. As to `CC(O)C(C#N)c1ccc(Cc2cc3ccccc3[nH]c2=O)cc1` (single isomer, unassigned) [Example 102A, 3-hydroxy-2-(4-((2-oxo-1,2-dihydroquinolin-3-yl)methyl)phenyl)butanenitrile], the EC50 stood at 5.2 nM.

For the molecule `O=c1[nH]c2ccccc2cc1Cc1nnc(Cc2ccccc2F)o1` [Example 8, 3-((5-(2-fluorobenzyl)-1,3,4-oxadiazol-2-yl)methyl)quinolin-2(1H)-one], the EC50 is 12.8 nM. With `O=C1NCCc2cc(Cc3cc4ccccc4[nH]c3=O)ccc21` [Example 78, 3-((1-oxo-1,2,3,4-tetrahydroisoquinolin-6-yl)methyl)quinolin-2(1H)-one] the figure was 10.7 nM; with `O=c1[nH]c2ccncc2cc1Cc1cccc(OC(F)(F)F)c1` [Example 117, 3-(3-(trifluoromethoxy)benzyl)-1,6-naphthyridin-2(1H)-one], 2.1 nM.

`O=c1[nH]c2ccccc2cc1Cc1ccc(OCC2CC2)nc1` [Example 88, 3-((6-(cyclopropylmethoxy)pyridin-3-yl)methyl)quinolin-2(1H)-one]: the EC50 came out at 1.3 nM.

Turning to `C[C@H]1Oc2ccc(Cc3cc4ccccc4[nH]c3=O)cc2NC1=O` (single isomer, unassigned) [Example 142A, 2-methyl-6-((2-oxo-1,2-dihydroquinolin-3-yl)methyl)-2H-benzo[b][1,4]oxazin-3(4H)-one], the half-maximal effective concentration (EC50) worked out at 4.4 nM. Regarding `O=c1[nH]c2ccccc2cc1Cc1cnn2ncccc12` [Example 158, 3-(pyrazolo[1,5-b]pyridazin-3-ylmethyl)quinolin-2(1H)-one], the EC50 was determined as 60.2 nM.
